In the NIST ThermoML archive (doi:10.1021/acs.jced.6b00526):
Numbers after ± are expanded uncertainties.

Experiments:
[1] = refractive index (Na D-line) (dimensionless); settings: 100 kPa, Standard Abbe refractometry
[2] = 100 kPa; for viscosity: Falling or rolling sphere viscometry; for mass density: Vibrating tube method
[3] = xn = mol fraction of the nth substance listed; settings: 100 kPa, Liquid, x1 = 1; for mass density: Vibrating tube method; for viscosity: Falling or rolling sphere viscometry
[4] = refractive index (Na D-line) (dimensionless); xn = mol fraction of the nth substance listed; settings: 100 kPa, Liquid, Standard Abbe refractometry, x1 = 1

Structure (SMILES) | refractive index ([1]; 288.15 K, Liquid) | refractive index ([1]; 293.15 K, Liquid) | refractive index ([1]; 298.15 K, Liquid) | refractive index ([1]; 303.15 K, Liquid) | refractive index ([1]; 308.15 K, Liquid) | refractive index ([1]; 313.15 K, Liquid) | refractive index ([1]; 318.15 K, Liquid) | viscosity ([2]; 293.15 K, Liquid) [mPa·s] | mass density ([2]; 293.15 K, Liquid) [kg/m3] | viscosity ([2]; 298.15 K, Liquid) [mPa·s] | viscosity ([2]; 303.15 K, Liquid) [mPa·s] | mass density ([3]; 288.15 K) [kg/m3] | viscosity ([3]; 293.15 K) [mPa·s] | mass density ([3]; 293.15 K) [kg/m3] | viscosity ([3]; 298.15 K) [mPa·s] | viscosity ([3]; 303.15 K) [mPa·s] | mass density ([3]; 318.15 K) [kg/m3] | refractive index ([4]; 288.15 K) | refractive index ([4]; 293.15 K) | refractive index ([4]; 298.15 K) | also measured
OCCO [1,2-ethanediol] | 1.432 ± 0.029 | 1.4306 ± 0.029 | 1.4294 ± 0.029 | 1.4282 ± 0.029 | 1.4269 ± 0.029 | 1.4257 ± 0.029 | 1.4244 ± 0.029 | 21.13 ± 3.4 | 1113.3 ± 4.5 | 17.24 ± 2.8 | 14.23 ± 2.3 | – | – | – | – | – | – | – | – | – | mass density ([2]; 303.15 K, Liquid): 1106.8 ± 4.4 kg/m3; mass density ([2]; 313.15 K, Liquid): 1099.1 ± 4.4 kg/m3
OCCCCO [1,4-butanediol] | – | – | – | – | – | – | – | – | – | – | – | – | – | – | – | – | – | – | – | – | refractive index ([1]; 288.15 K, Metastable liquid): 1.447 ± 0.029; refractive index ([1]; 293.15 K, Metastable liquid): 1.4455 ± 0.029; refractive index ([1]; 298.15 K, Metastable liquid): 1.4441 ± 0.029; refractive index ([1]; 303.15 K, Metastable liquid): 1.4426 ± 0.029; refractive index ([1]; 308.15 K, Metastable liquid): 1.4412 ± 0.029; refractive index ([1]; 313.15 K, Metastable liquid): 1.4398 ± 0.029; refractive index ([1]; 318.15 K, Metastable liquid): 1.4384 ± 0.029; mass density ([2]; 288.15 K, Metastable liquid): 1018.6 ± 4.1 kg/m3; viscosity ([2]; 293.15 K, Metastable liquid): 90.7 ± 15 mPa·s; mass density ([2]; 293.15 K, Metastable liquid): 1016.3 ± 4.1 kg/m3; viscosity ([2]; 298.15 K, Metastable liquid): 69.89 ± 11 mPa·s; mass density ([2]; 298.15 K, Metastable liquid): 1012.9 ± 4.1 kg/m3; viscosity ([2]; 303.15 K, Metastable liquid): 55.24 ± 8.8 mPa·s; mass density ([2]; 303.15 K, Metastable liquid): 1009.9 ± 4 kg/m3; mass density ([2]; 308.15 K, Metastable liquid): 1006.9 ± 4 kg/m3; mass density ([2]; 313.15 K, Metastable liquid): 1003.2 ± 4 kg/m3; mass density ([2]; 318.15 K, Metastable liquid): 1000.8 ± 4 kg/m3
OCCCCCO [1,5-pentanediol] | 1.4503 ± 0.029 | 1.449 ± 0.029 | 1.4478 ± 0.029 | 1.4466 ± 0.029 | 1.4454 ± 0.029 | 1.4441 ± 0.029 | 1.443 ± 0.029 | 118.7 ± 19 | 989.2 ± 4 | 86.79 ± 14 | 68.3 ± 11 | – | – | – | – | – | – | – | – | – | mass density ([2]; 288.15 K, Liquid): 992.2 ± 4 kg/m3; mass density ([2]; 298.15 K, Liquid): 986.2 ± 4 kg/m3; mass density ([2]; 303.15 K, Liquid): 983.2 ± 4 kg/m3; mass density ([2]; 308.15 K, Liquid): 980.3 ± 4 kg/m3; mass density ([2]; 313.15 K, Liquid): 977.4 ± 4 kg/m3; mass density ([2]; 318.15 K, Liquid): 974.8 ± 4 kg/m3
OCCCO [propan-1,3-diol] | 1.4407 ± 0.029 | 1.4393 ± 0.029 | 1.438 ± 0.029 | 1.4367 ± 0.029 | 1.4353 ± 0.029 | 1.434 ± 0.029 | 1.4327 ± 0.029 | 51.55 ± 8.3 | 1053.2 ± 4.3 | 40.8 ± 6.5 | 32.74 ± 5.3 | – | – | – | – | – | – | – | – | – | mass density ([2]; 288.15 K, Liquid): 1056.2 ± 4.3 kg/m3; mass density ([2]; 298.15 K, Liquid): 1049.9 ± 4.3 kg/m3; mass density ([2]; 303.15 K, Liquid): 1046.7 ± 4.3 kg/m3; mass density ([2]; 308.15 K, Liquid): 1043.5 ± 4.3 kg/m3; mass density ([2]; 313.15 K, Liquid): 1040.4 ± 4.2 kg/m3; mass density ([2]; 318.15 K, Liquid): 1037.9 ± 4.2 kg/m3
O [water] | 1.3338 ± 0.027 | 1.3331 ± 0.027 | 1.3325 ± 0.027 | 1.3318 ± 0.027 | 1.3312 ± 0.027 | 1.3305 ± 0.027 | 1.3299 ± 0.027 | 0.949 ± 0.15 | 998.3 ± 4 | 0.843 ± 0.14 | 0.755 ± 0.12 | – | – | – | – | – | – | – | – | – | mass density ([2]; 288.15 K, Liquid): 999.2 ± 4 kg/m3; mass density ([2]; 318.15 K, Liquid): 990.8 ± 4 kg/m3
O [water] + OCCCCCO | – | – | – | – | – | – | – | – | – | – | – | 999.2 ± 4 | 0.949 ± 0.15 | 998.3 ± 4 | 0.843 ± 0.14 | 0.755 ± 0.12 | 990.8 ± 4 | 1.3338 ± 0.027 | 1.3331 ± 0.027 | 1.3325 ± 0.027 | refractive index ([4]; 303.15 K): 1.3318 ± 0.027; refractive index ([4]; 308.15 K): 1.3312 ± 0.027; refractive index ([4]; 313.15 K): 1.3305 ± 0.027; refractive index ([4]; 318.15 K): 1.3299 ± 0.027
O [water] + OCCCCO | – | – | – | – | – | – | – | – | – | – | – | 999.2 ± 4 | 0.949 ± 0.15 | 998.3 ± 4 | 0.843 ± 0.14 | 0.755 ± 0.12 | 990.8 ± 4 | 1.3338 ± 0.027 | 1.3331 ± 0.027 | 1.3325 ± 0.027 | refractive index ([4]; 303.15 K): 1.3318 ± 0.027; refractive index ([4]; 308.15 K): 1.3312 ± 0.027; refractive index ([4]; 313.15 K): 1.3305 ± 0.027; refractive index ([4]; 318.15 K): 1.3299 ± 0.027
O [water] + OCCCO | – | – | – | – | – | – | – | – | – | – | – | 999.2 ± 4 | 0.949 ± 0.15 | 998.3 ± 4 | 0.843 ± 0.14 | 0.755 ± 0.12 | 990.8 ± 4 | 1.3338 ± 0.027 | 1.3331 ± 0.027 | 1.3325 ± 0.027 | refractive index ([4]; 303.15 K): 1.3318 ± 0.027; refractive index ([4]; 308.15 K): 1.3312 ± 0.027; refractive index ([4]; 313.15 K): 1.3305 ± 0.027; refractive index ([4]; 318.15 K): 1.3299 ± 0.027
O [water] + OCCO | – | – | – | – | – | – | – | – | – | – | – | 999.2 ± 4 | 0.949 ± 0.15 | 998.3 ± 4 | 0.843 ± 0.14 | 0.755 ± 0.12 | 990.8 ± 4 | 1.3338 ± 0.027 | 1.3331 ± 0.027 | 1.3325 ± 0.027 | refractive index ([4]; 303.15 K): 1.3318 ± 0.027; refractive index ([4]; 308.15 K): 1.3312 ± 0.027; refractive index ([4]; 313.15 K): 1.3305 ± 0.027; refractive index ([4]; 318.15 K): 1.3299 ± 0.027
